Experimental data: patent US5587442A, “Polyglycomers” (priority 1994, dated 1996)

Legend:
[1] = system: Con A; conditions: cited from earlier work
[2] = target: L-selectin; test: ELISA: inhibition of L-selectin-IgG binding to immobilized GlyCAM-1
Procedure: (§1) The affinity of compounds 8, 9 and 10 for each selectin were tested in an ELISA assay that compares their ability to inhibit binding of the selectins to immobilized GlyCAM-1. Because all of the selectins bind to GlyCAM-1 (FIG. 4) this assay provides insight into the relative affinities and specificities of the identified GlyCAM-1 component for each selectin.
(§2) The ELISAs were executed by the following protocol: An antibody to GlyCAM-1 was immobilized in a microtiter well. GlyCAM-1 was added. Selectin-IgG chimeras, which were biotinylated, were added to streptavidin-alkaline phosphatase conjugate. The binding of the selectin-IgGbiotin .cndot.strepavidin-alkaline phosphatase to GlyCAM-1 was monitored by UV. Para-nitrophenolate is produced from alkaline phosphatase catalyzed hydrolysis of paranitrophenolphosphate (Qed). The inhibitory effects of saccharides 8-10 on selectin-IgG binding to immobilized GlyCAM-1 were measured by this method.

[3] = system: P-selectin; test: ELISA: inhibition of P-selectin-IgG binding to immobilized GlyCAM-1; conditions: compared among 8, 9, 10
Procedure: as §1, §2

[4] = system: E-selectin; test: ELISA: inhibition of E-selectin-IgG binding to immobilized GlyCAM-1; conditions: compared among 8, 9, 10
Procedure: as §1, §2

[5] = target: T1, concanavalin A (Con A) (Canavalia ensiformis, UniProt P02866); test: Inhibition of Con A induced erythrocyte agglutination (hemagglutination inhibition assay); format: cell-based
T1 construct: purchased Calbiochem
Procedure: To assess the activity of our polymers, we compared the ability of the polymer to inhibit erythrocyte agglutination by Con A with that of several controls including the monovalent carbohydrate derivative methyl-α-D-glucopyranoside and the divalent-glucose substituted 7-oxanorbornene 3.
The agglutination inhibition assays were performed according to standard protocols. (Osawa, et al., Methods Enzymol. 28:323-327, 1972.) The assay was as follows: Pure lyophilized Con A was dissolved in HEPES buffer with 100 mM CaCl2, pH 8.0, and dialyzed into phosphate buffered saline (PBS, 25 mM sodium phosphate, 0.15M NaCl), pH 7.2, for the assay. Protein solution concentration was estimated from UV absorbance measurements at 280 nm.
Rabbit red blood cells were stored as a 10% suspension in Alsever's solution and washed 3× with PBS before the assay. For the assay, the cells were pelleted and resuspended in PBS with 0.5% bovine serum albumin.
Polymeric inhibitors were purified by precipitation or by gel filtration. The inhibition results obtained for compounds purified by either method were consistent. The minimum concentration of inhibitor required to inhibit four hemagglutinating doses of Con A was determined. After preincubation with the inhibitor, a 2% suspension of erythrocytes was added. The samples were examined for agglutination after 1 hour at room temperature.
Substrates were incubated with four agglutinating doses of Con A, prior to the addition of rabbit erythrocytes. The concentration of glucose moieties in solution required for inhibition was determined for each substrate within a two-fold dilution.

[6] = Table 2, four agglutinating doses of Con A, rabbit erythrocytes, 1 hour at room temperature, pH 7.2, within a two-fold dilution

mannose
binding to Con A (in words), calorimetric data ([1]; compared with glucose): slightly higher affinity

fucose
binding of fucose to Con A (in words) ([1]; Goldstein 1976): does not bind

CCCO[C@@H]1O[C@H](CO)[C@@H](O[C@@H]2O[C@@H](C)[C@@H](O)[C@@H](O)[C@@H]2O)[C@H](O[C@@H]2O[C@H](COS(=O)(=O)O)[C@H](O)[C@H](OS(=O)(=O)O)[C@H]2O)[C@H]1O [Compound 10]
IC50 for preventing L-selectin binding (in words) [2]: in the mmolar range
relative binding to L-selectin (in words) ([2]; compared among 8, 9, 10): bound no more tightly to L-selectin than the 3- and 6-sulfo analogs 8 and 9
relative effectiveness at blocking P-selectin binding (in words) [3]: the most active

CCCO[C@@H]1O[C@H](CO)[C@@H](O[C@@H]2O[C@@H](C)[C@@H](O)[C@@H](O)[C@@H]2O)[C@H](O[C@@H]2O[C@H](CO)[C@H](O)[C@H](OS(=O)(=O)O)[C@H]2O)[C@H]1O [Compound 8]
IC50 for preventing L-selectin binding (in words) [2]: in the mmolar range
relative effectiveness in binding to E-selectin (in words) [4]: considerably more effective than the 6-sulfate 9 or the 3,6-disulfate 10
relative effectiveness at blocking P-selectin binding (in words) [3]: the worst at blocking binding

CO[C@H]1O[C@H](CO)[C@@H](O)[C@H](O)[C@@H]1O [methyl-α-D-mannopyranoside, reference compound]
Inhibiting Dose [carbohydrate residues] ([5]; Table 3, hemagglutination inhibition assay, mono- and multivalent carbohydrate derivatives): 0.05 M

CO[C@H]1O[C@H](CO)[C@@H](O)[C@H](O)[C@H]1O [methyl-α-D-glucopyranoside, reference compound]
Inhibiting Dose [carbohydrate residues] [5, 6]: 0.05 M

CCCO[C@@H]1O[C@H](CO)[C@@H](O[C@@H]2O[C@@H](C)[C@@H](O)[C@@H](O)[C@@H]2O)[C@H](O[C@@H]2O[C@H](COS(=O)(=O)O)[C@H](O)[C@H](O)[C@H]2O)[C@H]1O [Compound 9]
IC50 for preventing L-selectin binding (in words) [2]: in the mmolar range
relative effectiveness at blocking P-selectin binding (in words) [3]: slightly better

O=C(OCCC1OC(CO)C(O)C(O)C1O)C1C2C=CC(O2)C1C(=O)OCCC1OC(CO)C(O)C(O)C1O (centres unmarked) [7-oxanorbornene 3]
Inhibiting dose compared with methyl-α-D-glucopyranoside (in words) [5]: comparable
Inhibiting Dose [carbohydrate residues] [5, 6]: 0.025 M
